Several values for one entry are separate records, joined by “and”; a condition that tells them apart may be missing. Equal values may be shown once.
Key:
[1] = target: T1, PTPN2 (HiBIT-PTPN2 in 293T.109 cells) (Homo sapiens, UniProt P17706); experiment: HiBiT Degradation 293T.109 PTPN2 (Nano-Glo HiBiT Lytic Assay); type: cell-based; settings: 24.0 hours
T1 construct: expressed in transfected cells; host or cells: 293T.109 (293T WT from ATCC)
T1 sequence (P17706 1-415): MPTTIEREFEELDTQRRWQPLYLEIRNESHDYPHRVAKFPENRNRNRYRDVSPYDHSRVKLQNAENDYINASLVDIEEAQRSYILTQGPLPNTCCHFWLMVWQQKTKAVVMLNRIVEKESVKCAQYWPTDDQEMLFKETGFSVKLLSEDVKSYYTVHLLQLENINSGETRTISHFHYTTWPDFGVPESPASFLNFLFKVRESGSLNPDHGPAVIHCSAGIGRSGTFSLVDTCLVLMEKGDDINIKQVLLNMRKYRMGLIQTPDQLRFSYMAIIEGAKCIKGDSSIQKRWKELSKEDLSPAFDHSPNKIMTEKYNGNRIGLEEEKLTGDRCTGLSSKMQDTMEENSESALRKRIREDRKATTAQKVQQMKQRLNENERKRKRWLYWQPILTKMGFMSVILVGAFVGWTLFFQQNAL
Method in brief: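 293T.109 cells with ectopic N-terminal HiBiT-tagged PTPN2 (5000/well) exposed to compounds for 24 h at 37 °C, 5% CO2; 11-point half-log titration from 10 μM top, duplicates. Remaining HiBiT-PTPN2 read as luminescence with Nano-Glo HiBiT lytic reagent, normalised to untreated cells (0%) and reagent-free wells.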

[2] = target: T2, PTPN2 (B16F10.4 cells) (Mus musculus, UniProt Q06180); experiment: HiBiT Degradation B16F10.4 PTPN2; type: cell-based; settings: 24.0 hours
T2 construct: HiBiT; host or cells: B16F10.4
T2 sequence (Q06180 1-406): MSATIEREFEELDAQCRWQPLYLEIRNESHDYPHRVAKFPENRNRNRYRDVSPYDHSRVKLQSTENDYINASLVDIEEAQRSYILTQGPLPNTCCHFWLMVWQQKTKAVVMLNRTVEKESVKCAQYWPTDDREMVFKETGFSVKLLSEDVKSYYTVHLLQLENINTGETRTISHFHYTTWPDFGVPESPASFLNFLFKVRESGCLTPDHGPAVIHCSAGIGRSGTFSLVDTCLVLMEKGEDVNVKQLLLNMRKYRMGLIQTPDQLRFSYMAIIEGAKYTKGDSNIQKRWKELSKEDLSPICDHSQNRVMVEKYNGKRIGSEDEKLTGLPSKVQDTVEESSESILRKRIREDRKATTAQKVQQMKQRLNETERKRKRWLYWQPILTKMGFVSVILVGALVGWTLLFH

DC50 [1] [nM] | DC50 [2] | SMILES
50 to 200 | 200 to 1000 nM | CC1(C)C[C@@H](Nc2cccc(-c3sc(C(=O)O)c(OCC(=O)O)c3Cl)c2)CCN1S(=O)(=O)Cc1cccc(NC(=O)[C@H]2[C@@H]3CN(C(=O)CNc4cccc5c4CN(C4CCC(=O)NC4=O)C5=O)C[C@@H]32)c1 (some centres unmarked) [Example 98]
< 50 | < 50 nM | Cn1c(=O)n([C@@H]2CCC(=O)NC2=O)c2ccc(C3CCN(C(=O)Nc4cccc(CS(=O)(=O)N5CC[C@H](Nc6cccc(-c7sc(C(=O)O)c(OCC(=O)O)c7Cl)c6)CC5(C)C)c4)CC3)cc21 (single isomer, unassigned) [Example 235]
50 to 200 | 200 to 1000 nM | Cn1c(=O)n(C2CCC(=O)NC2=O)c2cc(F)c(C3CCN(C(=O)Nc4cccc(CS(=O)(=O)N5CC[C@H](Nc6cccc(-c7sc(C(=O)O)c(OCC(=O)O)c7Cl)c6)CC5(C)C)c4)CC3)cc21 (stereo partly drawn) [Example 153, 3-(carboxymethoxy)-4-chloro-5-[3-[[(4S)-1-[[3-[[4-[1-(2,6-dioxo-3-piperidyl)-6-fluoro-3-methyl-2-oxo-benzimidazol-5-yl]piperidine-1-carbonyl]amino]phenyl]methylsulfonyl]-2,2-dimethyl-4-piperidyl]amino]phenyl]thiophene-2-carboxylic acid]
50 to 200 | 50 to 200 nM | CC(C)n1c(=O)n(C2CCC(=O)NC2=O)c2ccc(C3CCN(C(=O)Nc4cccc(CS(=O)(=O)N5CC[C@H](Nc6cccc(-c7sc(C(=O)O)c(OCC(=O)O)c7Cl)c6)CC5(C)C)c4)CC3)cc21 (single isomer, unassigned) [Example 87b]
< 50 | < 50 nM | CC1(C)C[C@@H](Nc2cccc(-c3sc(C(=O)O)c(OCC(=O)O)c3Cl)c2)CCN1S(=O)(=O)Cc1cccc(N2CCN(C3CCN(c4ccc5c6c(cccc46)C(=O)N5C4CCC(=O)NC4=O)CC3)C2=O)c1 (stereo partly drawn) [Example 189, 3-(carboxymethoxy)-4-chloro-5-(3-(((4S)-1-((3-(3-(1-(1-(2,6-dioxopiperidin-3-yl)-2-oxo-1,2-dihydrobenzo[cd]indol-6-yl)piperidin-4-yl)-2-oxoimidazolidin-1-yl)benzyl)sulfonyl)-2,2-dimethylpiperidin-4-yl)amino)phenyl)thiophene-2-carboxylic acid]
200 to 1000 | 200 to 1000 nM | CC1(C)C[C@@H](Nc2cccc(-c3sc(C(=O)O)c(OCC(=O)O)c3Cl)c2)CCN1S(=O)(=O)Cc1cccc(NC(=O)CCOCCn2cc(CNc3cccc4c3C(=O)N(C3CCC(=O)NC3=O)C4=O)nn2)c1 (stereo partly drawn) [Example 15, 3-(carboxymethoxy)-4-chloro-5-(3-(((4S)-1-((3-(3-(2-(4-(((2-(2,6-dioxopiperidin-3-yl)-1,3-dioxoisoindolin-4-yl)amino)methyl)-1H-1,2,3-triazol-1-yl)ethoxy)propanamido)benzyl)sulfonyl)-2,2-dimethylpiperidin-4-yl)amino)phenyl)thiophene-2-carboxylic acid]
200 to 1000 | 50 to 200 nM | Cn1c(=O)n(C2CCC(=O)NC2=O)c2ccc(C3CCN(C(=O)Nc4cccc(CS(=O)(=O)N5CC[C@@H](Nc6cccc(-c7sc(C(=O)O)c(OCC(=O)O)c7Cl)c6)CC5(C)C)c4F)CC3)cc21 (some centres unmarked) [Example 131]
50 to 200 | 50 to 200 nM | Cn1c(=O)n(C2CCC(=O)NC2=O)c2ccc(N3CCC(C(=O)Nc4cccc(CS(=O)(=O)N5CC[C@H](Nc6cccc(-c7sc(C(=O)O)c(OCC(=O)O)c7Cl)c6)CC5(C)C)c4)CC3)cc21 (some centres unmarked) [Example 122]
50 to 200 | 50 to 200 nM | CC1(C)C[C@@H](Nc2cccc(-c3sc(C(=O)O)c(OCC(=O)O)c3Cl)c2)CCN1S(=O)(=O)Cc1cccc(NC(=O)N2CCC(c3ccc4c(c3)n(C3CC3)c(=O)n4C3CCC(=O)NC3=O)CC2)c1 (stereo partly drawn) [Example 154, 3-(carboxymethoxy)-4-chloro-5-[3-[[(4S)-1-[[3-[[4-[3-cyclopropyl-1-(2,6-dioxo-3-piperidyl)-2-oxo-benzimidazol-S-yl]piperidine-1-carbonyl]amino]phenyl]methylsulfonyl]-2,2-dimethyl-4-piperidyl]amino]phenyl]thiophene-2-carboxylic acid]
50 to 200 | 50 to 200 nM and < 50 nM | CC(C)n1c(=O)n(C2CCC(=O)NC2=O)c2ccc(C3CCN(C(=O)Nc4cccc(CS(=O)(=O)N5CC[C@H](Nc6cccc(-c7sc(C(=O)O)c(OCC(=O)O)c7Cl)c6)CC5(C)C)c4)CC3)cc21 (stereo partly drawn) [Example 87, 3-(carboxymethoxy)-4-chloro-5-[3-[[(4S)-1-[[3-[[4-[1-(2,6-dioxo-3-piperidyl)-3-isopropyl-2-oxo-benzimidazol-5-yl]piperidine-1-carbonyl]amino]phenyl]methylsulfonyl]-2,2-dimethyl-4-piperidyl]amino]phenyl]thiophene-2-carboxylic acid]
< 50 | ≥ 1000 nM | O=C(O)COc1c(C(=O)O)sc(-c2cccc(NC3CCN(S(=O)(=O)Cc4cccc(NC(=O)CCN5CCC(Nc6cccc7c6CN(C6CCC(=O)NC6=O)C7=O)CC5)c4)CC3)c2)c1Cl (centres unmarked) [Example 50, 3-(carboxymethoxy)-4-chloro-5-[3-[[1-[[3-[3-[4-[[2-(2,6-dioxo-3-piperidyl)-1-oxo-isoindolin-4-yl]amino]-1-piperidyl]propanoylamino]phenyl]methylsulfonyl]-4-piperidyl]amino]phenyl]thiophene-2-carboxylic acid]
200 to 1000 | 200 to 1000 nM | Cn1c(=O)n(C2CCC(=O)NC2=O)c2cccc(C3CCN(C(=O)Nc4cccc(CS(=O)(=O)N5CCC(Nc6cccc(-c7sc(C(=O)O)c(OCC(=O)O)c7Cl)c6)CC5)c4)CC3)c21 (centres unmarked) [Example 52, 3-(carboxymethoxy)-4-chloro-5-[3-[[1-[[3-[[4-[1-(2,6-dioxo-3-piperidyl)-3-methyl-2-oxo-benzimidazol-4-yl]piperidine-1-carbonyl]amino]phenyl]methylsulfonyl]-4-piperidyl]amino]phenyl]thiophene-2-carboxylic acid]
50 to 200 | 200 to 1000 nM | Cn1c(=O)n(C2CCC(=O)NC2=O)c2ccc(N3CC(OCC(=O)Nc4cccc(CS(=O)(=O)N5CC[C@H](Nc6cccc(-c7sc(C(=O)O)c(OCC(=O)O)c7Cl)c6)CC5(C)C)c4)C3)cc21 (stereo partly drawn) [Example 107, 3-(carboxymethoxy)-4-chloro-5-[3-[[(4S)-1-[[3-[[2-[1-[1-(2,6-dioxo-3-piperidyl)-3-methyl-2-oxo-benzimidazol-5-yl]azetidin-3-yl]oxyacetyl]amino]phenyl]methylsulfonyl]-2,2-dimethyl-4-piperidyl]amino]phenyl]thiophene-2-carboxylic acid]
50 to 200 | 50 to 200 nM | CC(C)n1c(=O)n(C2CCC(=O)NC2=O)c2ccc(C3CCN(CC(=O)Nc4cccc(CS(=O)(=O)N5CC[C@H](Nc6cccc(-c7sc(C(=O)O)c(OCC(=O)O)c7Cl)c6)CC5(C)C)c4)CC3(F)F)cc21 (stereo partly drawn) [Example 176, 3-(carboxymethoxy)-4-chloro-5-[3-[[(4S)-1-[[3-[[2-[4-[1-(2,6-dioxo-3-piperidyl)-3-isopropyl-2-oxo-benzimidazol-5-yl]-3,3-difluoro-1-piperidyl]acetyl]amino]phenyl]methylsulfonyl]-2,2-dimethyl-4-piperidyl]amino]phenyl]thiophene-2-carboxylic acid]
200 to 1000 | 50 to 200 nM | Cn1c(=O)n(C2CCC(=O)NC2=O)c2ccc(C3CCN(C(=O)Nc4cccc(CS(=O)(=O)N5CCC(Nc6cc(-c7sc(C(=O)O)c(OCC(=O)O)c7Cl)ccc6F)CC5)c4)CC3)cc21 (centres unmarked) [Example 121, 3-(carboxymethoxy)-4-chloro-5-[3-[[1-[[3-[[4-[1-(2,6-dioxo-3-piperidyl)-3-methyl-2-oxo-benzimidazol-5-yl]piperidine-1-carbonyl]amino]phenyl]methylsulfonyl]-4-piperidyl]amino]-4-fluoro-phenyl]thiophene-2-carboxylic acid]
< 50 | 50 to 200 nM | Cn1c(=O)n(C2CCC(=O)NC2=O)c2ccc(N3CCC(NCCNc4cccc(CS(=O)(=O)N5CC[C@H](Nc6cccc(-c7sc(C(=O)O)c(OCC(=O)O)c7Cl)c6)CC5(C)C)c4)CC3)cc21 (stereo partly drawn) [Example 197, 3-(carboxymethoxy)-4-chloro-5-[3-[[(4S)-1-[[3-[2-[[1-[1-(2,6-dioxo-3-piperidyl)-3-methyl-2-oxo-benzimidazol-5-yl]-4-piperidyl]amino]ethylamino]phenyl]methylsulfonyl]-2,2-dimethyl-4-piperidyl]amino]phenyl]thiophene-2-carboxylic acid]

Source: US20250302815A1, “PROTEIN TYROSINE PHOSPHATASE TARGETING LIGANDS” (CALICO LIFE SCIENCES LLC, priority 2021, published 2025)
